Results published in patent US20110136762A1, “FUNGICIDAL PYRIDAZINES” (E.I. Du Pont de Nemours and Company, priority 2008, published 2011).
Marks after values point to notes of the source that are not given here.

Key:
Format in all cases: in vivo
Erysiphe graminis = experiment: Test A: wheat powdery mildew, preventive spray on wheat seedlings, visual disease rating; conditions: 40 ppm (marked *), 100 = 100% disease control, 0 = no disease control relative to controls; for pest or weed control at 40 ppm: Blumeria graminis, 192 h
Summary of the method: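 Seedlings were sprayed to run-off with test suspension at 200 ppm (500 g/ha), or 40 ppm where marked. They were dust-inoculated with spores the next day and kept 8 days at 20 °C. Disease was then rated visually.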

[1] = tested on: Puccinia recondita f. sp. tritici; experiment: Test B: wheat leaf rust, preventive spray on wheat seedlings, visual disease rating; conditions: 40 ppm (marked *), 100 = 100% disease control, 0 = no disease control relative to controls; for pest or weed control at 40 ppm: 192 h
Summary of the method: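 Seedlings were sprayed to run-off at 200 ppm (500 g/ha), or at 40 ppm where marked *, then inoculated with spores the next day. Plants were held at saturated humidity at 20° C for 24 h and then in a growth chamber at 20° C for 7 days before visual disease rating.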

Septoria tritici = experiment: Test C: wheat leaf blotch, preventive spray on wheat seedlings, visual disease rating; conditions: 40 ppm (marked *), 100 = 100% disease control, 0 = no disease control relative to controls; for pest or weed control at 40 ppm: Zymoseptoria tritici, 504 h
Summary of the method: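 Wheat seedlings were sprayed to run-off with test suspension at 200 ppm (500 g/ha), or at 40 ppm where marked *. They were inoculated with spores the next day and held in saturated atmosphere at 20° C for 48 h. After a further 19 days in a growth chamber at 20° C, disease was rated visually.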

Septoria nodorum = experiment: Test D: wheat glume blotch, preventive spray on wheat seedlings, visual disease rating; conditions: 100 = 100% disease control, 0 = no disease control relative to controls; for pest or weed control at 40 ppm / Test D rating (disease control, wheat glume blotch): 40 ppm (marked *)
Summary of the method: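 Wheat seedlings sprayed to run-off with compound at 200 ppm (500 g/ha), or 40 ppm where marked, then inoculated with Septoria nodorum spores the next day. Held 48 h in saturated atmosphere at 20° C, then 7 days in a growth chamber at 20° C before visual disease rating.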

Alternaria solani = experiment: Test E: tomato early blight, preventive spray on tomato seedlings, visual disease rating; conditions: 100 = 100% disease control, 0 = no disease control relative to controls; for pest or weed control at 40 ppm / Test E rating (disease control, tomato early blight): 40 ppm (marked *)
Summary of the method: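 Tomato seedlings sprayed to run-off with test suspension at 200 ppm (equivalent to 500 g/ha), or 40 ppm where marked "*", as a preventive treatment before A. solani challenge. Disease then rated visually.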

Botrytis cinerea = experiment: Test F: tomato Botrytis, preventive spray on tomato seedlings, visual disease rating; conditions: 100 = 100% disease control, 0 = no disease control relative to controls; for pest or weed control at 40 ppm / Test F rating (disease control, tomato Botrytis): 40 ppm (marked *)
Summary of the method: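 Preventive test: tomato seedlings sprayed to run-off at 200 ppm (500 g/ha) or, where marked *, 40 ppm, then inoculated next day with B. cinerea spores. Kept 48 h at saturated humidity and 20° C, then 3 days at 24° C. Disease assessed visually.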

Compound: COc1cc(OC)cc(-c2c(-c3ccccc3)nnc(C)c2-c2c(F)cc(F)cc2F)c1 [Compound 35, 4-(3,5-dimethoxyphenyl)-6-methyl-3-phenyl-5-(2,4,6-trifluorophenyl)pyridazine]
- pest or weed control at 40 ppm (Erysiphe graminis): 90%
- pest or weed control at 40 ppm [1]: 100%
- pest or weed control at 40 ppm (Septoria tritici): 100%
- pest or weed control at 200 ppm (Septoria nodorum; Parastagonospora nodorum, 200 ppm): 95%
- pest or weed control at 200 ppm (Alternaria solani; Alternaria solani, 200 ppm): 99%
- pest or weed control at 200 ppm (Botrytis cinerea; Botrytis cinerea, 200 ppm): 99%

Compound: COc1cc(OC)c(Cl)c(-c2c(-c3ccccc3)nnc(C)c2-c2c(F)cc(F)cc2F)c1 [Compound 36, 4-(2-chloro-3,5-dimethoxyphenyl)-6-methyl-3-phenyl-5-(2,4,6-trifluorophenyl)pyridazine]
- pest or weed control at 40 ppm (Erysiphe graminis): 98%
- pest or weed control at 40 ppm [1]: 99%
- pest or weed control at 40 ppm (Septoria tritici): 99%
- pest or weed control at 40 ppm (Septoria nodorum; Parastagonospora nodorum): 100%
- pest or weed control at 40 ppm (Alternaria solani; Alternaria solani): 99%
- pest or weed control at 40 ppm (Botrytis cinerea; Botrytis cinerea): 99%

Compound: COc1cc(OC)cc(-c2c(-c3ccccc3)nnc(C)c2-c2c(F)cc(OC)cc2F)c1 [Compound 37, 5-(2,6-difluoro-4-methoxyphenyl)-4-(3,5-dimethoxyphenyl)-6-methyl-3-phenylpyridazine]
- pest or weed control at 40 ppm (Erysiphe graminis): 69%
- pest or weed control at 40 ppm [1]: 100%
- pest or weed control at 40 ppm (Septoria tritici): 98%
- pest or weed control at 40 ppm (Septoria nodorum; Parastagonospora nodorum): 99%
- pest or weed control at 40 ppm (Alternaria solani; Alternaria solani): 99%
- pest or weed control at 40 ppm (Botrytis cinerea; Botrytis cinerea): 99%

Compound: COc1cc(OC)cc(-c2c(-c3ccccc3F)nnc(Cl)c2-c2c(F)cc(F)c([Si](C)(C)C)c2F)c1 [Compound 38, 3-chloro-5-(3,5-dimethoxyphenyl)-6-(2-fluorophenyl)-4-[2,4,6-trifluoro-3-(trimethylsilyl)phenyl]pyridazine]
- pest or weed control at 40 ppm (Erysiphe graminis): 0%
- pest or weed control at 40 ppm [1]: 98%
- pest or weed control at 40 ppm (Septoria tritici): 94%
- pest or weed control at 40 ppm (Septoria nodorum; Parastagonospora nodorum): 0%
- pest or weed control at 40 ppm (Alternaria solani; Alternaria solani): 26%
- pest or weed control at 40 ppm (Botrytis cinerea; Botrytis cinerea): 99%

Compound: Fc1cncc(-c2c(-c3ccccc3F)nnc(Cl)c2-c2c(F)cc(F)cc2F)c1 [Compound 39]
- Test A rating (disease control, wheat powdery mildew) (Erysiphe graminis): 100* %
- Test B rating (disease control, wheat leaf rust) [1]: 100* %
- Test C rating (disease control, wheat leaf blotch) (Septoria tritici): 100* %
- Test D rating (disease control, wheat glume blotch) (Septoria nodorum): 100* %
- Test E rating (disease control, tomato early blight) (Alternaria solani): 100* %
- Test F rating (disease control, tomato Botrytis) (Botrytis cinerea): 100* %

Compound: COc1ccncc1-c1c(-c2ccccc2F)nnc(Cl)c1-c1c(F)cc(F)cc1F [Compound 40]
- Test A rating (disease control, wheat powdery mildew) (Erysiphe graminis): 73* %
- Test B rating (disease control, wheat leaf rust) [1]: 100* %
- Test C rating (disease control, wheat leaf blotch) (Septoria tritici): 100* %
- Test D rating (disease control, wheat glume blotch) (Septoria nodorum): 60* %
- Test E rating (disease control, tomato early blight) (Alternaria solani): 93* %
- Test F rating (disease control, tomato Botrytis) (Botrytis cinerea): 100* %

Compound: Cc1nnc(-c2ccccc2F)c(-c2cncc(F)c2)c1-c1c(F)cc(F)cc1F [Compound 41]
- Test A rating (disease control, wheat powdery mildew) (Erysiphe graminis): 97* %
- Test B rating (disease control, wheat leaf rust) [1]: 100* %
- Test C rating (disease control, wheat leaf blotch) (Septoria tritici): 100* %
- Test D rating (disease control, wheat glume blotch) (Septoria nodorum): 98* %
- Test E rating (disease control, tomato early blight) (Alternaria solani): 98* %
- Test F rating (disease control, tomato Botrytis) (Botrytis cinerea): 100* %

Compound: COc1ccncc1-c1c(-c2ccccc2F)nnc(C)c1-c1c(F)cc(F)cc1F [Compound 42]
- Test A rating (disease control, wheat powdery mildew) (Erysiphe graminis): 78* %
- Test B rating (disease control, wheat leaf rust) [1]: 99* %
- Test C rating (disease control, wheat leaf blotch) (Septoria tritici): 100* %
- Test D rating (disease control, wheat glume blotch) (Septoria nodorum): 0* %
- Test E rating (disease control, tomato early blight) (Alternaria solani): 41* %
- Test F rating (disease control, tomato Botrytis) (Botrytis cinerea): 100* %

Compound: COc1cc(OC)c(Cl)c(-c2c(-c3ccccc3F)nnc(Cl)c2-c2c(F)cc(F)cc2F)c1 [Compound 43]
- Test A rating (disease control, wheat powdery mildew) (Erysiphe graminis): 99* %
- Test B rating (disease control, wheat leaf rust) [1]: 100* %
- Test C rating (disease control, wheat leaf blotch) (Septoria tritici): 97* %
- Test D rating (disease control, wheat glume blotch) (Septoria nodorum): 100* %
- Test E rating (disease control, tomato early blight) (Alternaria solani): 99* %
- Test F rating (disease control, tomato Botrytis) (Botrytis cinerea): 100* %
